# Source: patent US20130261133A1, “Therapeutic Compounds for Protozoal and Microbial Infections and Cancer” (THE UNIVERSITY OF MONTANA, priority 2012, published 2013)
# System: Leishmania donovani
# Assay: Antileishmanial assay, Leishmania in infected macrophages (L. donovani)
# Conditions: Leishmania donovani, Macrophage, read-out: IC50 Leishmania in infected macrophages
row,SMILES,IC50 [nM]
1,"C=C[C@@H](C#CC#C[C@@H](CCCCCCCCC)NC(=O)c1cccc(Br)c1)OC(C)=O [Compound 65, (3S,8R)-8-(3-bromobenzamido)heptadeca-1-en-4,6-diyn-3-yl acetate]",184
2,"C=C[C@@H](C#CC#CC(CCCCCCCCC)NC(=O)c1ccc(C)cc1)OC(C)=O (stereo in doubt) [Compound 41, (3S,8R)-8-(4-methylbenzamido)heptadeca-1-en-4,6-diyn-3-yl acetate]",126
3,"C=C[C@@H](C#CC#C[C@@H](CCCCCCCCC)NC(=O)c1cc(Cl)cc(Cl)c1)OC(C)=O [Compound 70, (3S,8R)-8-(3,5-dichlorobenzamido)heptadeca-1-en-4,6-diyn-3-yl acetate]",252
4,"C=C[C@@H](C#CC#CC(CCCCCCCCC)NC(=O)c1ccc(Cl)c(Cl)c1)OC(C)=O (stereo in doubt) [Compound 40, (3S,8R)-8-(3,4-dichlorobenzamido)heptadeca-1-en-4,6-diyn-3-yl acetate]",428
5,"CCCCCCCCC[C@H](C#CC#C[C@@H](O)c1ccccc1)NCCCC [Compound 76, (1S,6R)-6-(butylamino)-1-phenylpentadeca-2,4-diyn-1-ol]",113
6,"C=C[C@@H](C#CC#C[C@@H](CCCCCCCCC)NC(=O)c1cc(C)on1)OC(C)=O [Compound 61, (3S,8R)-8-(5-methylisoxazole-3-carboxamido)heptadeca-1-en-4,6-diyn-3-yl acetate]",77
7,"C=C[C@@H](C#CC#C[C@@H](CCCCCCCCC)NC(=O)c1ccco1)OC(C)=O [Compound 69, (3S,8R)-8-(furan-2-carboxamido)heptadeca-1-en-4,6-diyn-3-yl acetate]",50
8,"C=C[C@H](O)C#CC#C[C@@H](CCCCCCCCC)NCC [Compound 78, (3S,8R)-8-(ethylamino)heptadeca-1-en-4,6-diyn-3-ol]",30
9,"C=C[C@H](O)C#CC#C[C@@H](CCCCCCCCC)NC(=O)OCC [Compound 57, ethyl((3S,8R)-3-hydroxyheptadeca-1-en-4,6-diyn-8-yl)carbamate]",10
10,"C=C[C@H](O)C#CC#C[C@@H](CCCCCCCCC)OC [Compound 58, (3S,8R)-8-methoxyheptadeca-1-en-4,6-diyn-3-ol]",11
11,"C=C[C@@H](C#CC#C[C@@H](CCCCCCCCC)N=C=S)OC(C)=O [Compound 71, (3S,8R)-8-isothiocyanatoheptadeca-1-en-4,6-diyn-3-yl acetate]",21600
12,"C=C[C@@H](C#CC#C[C@@H](CCCCCCCCC)NC(=O)CCCOCc1ccccc1)OC(C)=O [Compound 72, (3S,8R)-8-(4-(benzyloxy)butanamido)heptadeca-1-en-4,6-diyn-3-yl acetate]",529
13,"CCCCCCCCC[C@H](C#CC#C[C@@H](O)C1CC1)NCCCC [Compound 74, (1S,6R)-6-(butylamino)-1-cyclopropylpentadeca-2,4-diyn-1-ol]",722
14,"C=C[C@@H](C#CC#C[C@@H](CCCCCCCCC)NC(=O)c1ccccn1)OC(C)=O [Compound 62, (3S,8R)-8-(picolinamido)heptadeca-1-en-4,6-diyn-3-yl acetate]",89
15,"C=C[C@@H](C#CC#C[C@@H](CCCCCCCCC)NC(=O)c1cccc(C(F)(F)F)c1)OC(C)=O [Compound 68, (3S,8R)-8-(3-(trifluoromethyl)benzamido)heptadeca-1-en-4,6-diyn-3-yl acetate]",191
16,"C=C[C@@H](C#CC#C[C@@H](CCCCCCCCC)NC(=O)c1ccc(F)cc1)OC(C)=O [Compound 67, (3S,8R)-8-(4-fluorobenzamido)heptadeca-1-en-4,6-diyn-3-yl acetate]",72
17,"CCCCCCCCC[C@H](C#CC#C[C@@H](O)c1ccc(OCC)cc1)NCCCC [Compound 77, (1S,6R)-6-(butylamino)-1-(4-ethoxyphenyl)pentadeca-2,4-diyn-1-ol]",443
18,"C=C[C@@H](C#CC#CC(CCCCCCCCC)NC(=O)c1ccc(OC)cc1)OC(C)=O (stereo in doubt) [Compound 42, (3S,8R)-8-(4-methoxybenzamido)heptadeca-1-en-4,6-diyn-3-yl acetate]",165
